Data published in publication PMC6491818, “Novel 4-Acrylamido-Quinoline Derivatives as Potent PI3K/mTOR Dual Inhibitors: The Design, Synthesis, and in vitro and in vivo Biological Evaluation” (Frontiers in Chemistry, 2019).
Entries after “also recorded” stand apart in the source; their conditions may differ.

How the values were obtained:
PI3Kβ = PI3Kβ (Homo sapiens, UniProt P42338); experiment: PI3Kβ enzymatic assay (ADP-Glo Luminescent assay); format: biochemical
Description: (§3) Kinase-Glo Luminescent Kinase assay (Promega) was performed to determine the PI3Kα inhibitory activity, while ADP-Glo Luminescent assay (Promega) was performed to identify the inhibitory activity against PI3Kβ, γ, or δ. The kinase buffer was composed of HEPES (50 mM, pH 7.5), MgCl2 (3 mM), EGTA (1 mM), NaCl (100 mM), CHAPS (0.03%) and DTT (2 mM). The serially diluted compound solutions (2.5 mL) were successively added to a 384-well plate. Afterwards, the solution of kinase (2.5 mL) in the kinase buffer and the solution of substrate (5 mL) in the kinase buffer containing PIP2 and ATP were added to each well of the assay plate for starting the reaction. Kinase buffer was added instead to the control well without enzyme. […] After being incubated at room temperature for 1 h, Kinase-Glo reagent (10 mL) was added to each well of the PI3Kα assay plate to quench the reaction. […] The mixture was treated briefly with centrifuge, shaken slowly, and equilibrated for 40 min. Kinase Detection reagent (10 mL) was added to each well. Before reading on a plate reader for luminescence, the resultant mixture was incubated at room temperature for 1 h. After calculating the percent inhibition from the RLU values, the curves were fitted in Graphpad Prism 5 to give IC50 values.

PI3Kγ = PI3Kγ (Homo sapiens, UniProt P48736); experiment: PI3Kγ enzymatic assay (ADP-Glo Luminescent assay); format: biochemical
Description: (§1) Kinase-Glo Luminescent Kinase assay (Promega) was performed to determine the PI3Kα inhibitory activity, while ADP-Glo Luminescent assay (Promega) was performed to identify the inhibitory activity against PI3Kβ, γ, or δ. The kinase buffer was composed of HEPES (50 mM, pH 7.5), MgCl2 (3 mM), EGTA (1 mM), NaCl (100 mM), CHAPS (0.03%) and DTT (2 mM). The serially diluted compound solutions […] were successively added to a 384-well plate. Afterwards, the solution of kinase […] in the kinase buffer and the solution of substrate (5 mL) in the kinase buffer containing PIP2 and ATP were added to each well of the assay plate for starting the reaction. Kinase buffer was added instead to the control well without enzyme. The final concentrations of PI3Kα, PI3Kβ, PI3Kγ, PI3Kδ, PIP2, and ATP in corresponding kinase reaction mixture were 1.65 nM, 4.8 nM, 7.6 nM, 5.7 nM, […], respectively. After being incubated at room temperature for 1 h, Kinase-Glo reagent (10 mL) was added to each well of the PI3Kα assay plate to quench the reaction. Subsequently, the mixture needs to be mixed briefly with centrifuge and shaken slowly for 15 min before being read on a plate reader for luminescence. As for PI3Kβ, γ, or δ, reaction mixture (5 mL) was transferred to a new 384-plate and ADP-Glo reagent (5 mL) was added for stopping the reaction. The mixture was treated briefly with centrifuge, shaken slowly, and equilibrated for 40 min. Kinase Detection reagent (10 mL) was added to each well. Before reading on a plate reader for luminescence, the resultant mixture was incubated at room temperature for 1 h. After calculating the percent inhibition from the RLU values, the curves were fitted in Graphpad Prism 5 to give IC50 values.

[1] = system: prostate cancer PC3 cell line; experiment: Anti-proliferative SRB assay, PC3; format: cell-based; settings: PC3 cells, 72 h exposure
Description: (§2) The anti-proliferative activity of compounds was evaluated by sulforhodamin B (SRB) assay. After being cultured for 10 h, cells in 96-well plates were subjected to 72 h-exposure to serially diluted compound solutions. Cells were washed with PBS and fixed with trichloroacetic acid (10%, W/V) at 4°C for 1 h. Then, cells were successively washed with PBS, stained for 0.5 h with SRB (0.4%, dissolved in 1% acetic acid), and washed by 1% acetic acid for 5 times. Protein-bound dye was extracted with unbuffered Tris base (10 mmol). After calculating the percent inhibition from absorbance, measured at 515 nm with a multiscan spectrum (Thermo Electron Co., Vantaa, Finland), the curves were fitted in Graphpad Prism 5 to give GI50 values.

PI3Kδ = PI3Kδ (Homo sapiens, UniProt O00329); experiment: PI3Kδ enzymatic assay (ADP-Glo Luminescent assay); format: biochemical
Description: as §3

[2] = system: phos-Akt (Ser473), phos-Akt (Thr308), phos-S6 ribosomal protein (Ser235/236), phos-4E-BP1 (Thr37/46); experiment: Western blot of PI3K/Akt/mTOR signaling biomarkers in PC3 cells; format: cell-based; settings: 3 h treatment
Description: The Western blot analysis for evaluating the capability to down-regulate phos-Akt (Ser473), phos-Akt (Thr308), phos-S6 ribosomal protein (Ser235/236), and phos-4E-BP1 (Thr37/46) in PC3 cells was performed according to the protocol disclosed in our previous study (Zhang et al., [2017a]) with a minor modification. The cells were seeded into six-well plate at 1 × 10^6 cells per well, and then incubated at 37°C (5% CO2) overnight prior to drug treatment.

[3] = molecular target: mTOR (1362-end, Millipore) (Homo sapiens, UniProt P42345); experiment: mTOR enzymatic assay (Lance Ultra assay); format: biochemical
Description: The kinase buffer was composed of HEPES (50 mM, pH 7.5), MgCl2 (10 mM), EGTA (1 mM), MnCl2 (3 mM), Tween-20 (0.01%) and DTT (2 mM). The solution of substrate in the kinase buffer contained ULight-4E-BP1 peptide (Thr37/46, PE) and ATP. […] After being incubated at room temperature for 1 h, kinase detection buffer (10 mL) containing EDTA and Eu-anti-phospho-4E-BP1 antibody (Thr37/46, PE) was added to each well of the assay plate. Before reading on a plate reader, the mixture needs to be mixed briefly with centrifuge and then allowed to equilibrate for 1 h. After calculating the percent inhibition from Lance signal, the curves were fitted in Graphpad Prism 5 to give IC50 values.

[4] = system: colorectal cancer HCT116 cell line; experiment: Anti-proliferative SRB assay, HCT116; format: cell-based; settings: 72 h exposure
Description: as §2

PI3Ks and mTOR = experiment: Enzymatic activity against PI3Ks and mTOR (summary over all tested enzymes); format: biochemical; settings: PI3Kα, PI3Kβ, PI3Kγ, PI3Kδ and mTOR
Description: as §1, with “After being incubated at room temperature for 1 h, Kinase-Glo reagent (10 mL) was added to each well of the PI3Kα assay plate to quench the reaction.” left out, “As for PI3Kβ, γ, or δ, reaction mixture (5 mL) was transferred to a new 384-plate and ADP-Glo reagent (5 mL) was added for stopping the reaction. The mixture was treated briefly with centrifuge, shaken slowly, and equilibrated for 40 min. Kinase Detection reagent (10 mL) was added to each well.” left out, “After calculating the percent inhibition from the RLU values, the curves were fitted in Graphpad Prism 5 to give IC50 values.” left out
Lance Ultra assay was performed to determine the mTOR (1362-end, Millipore) inhibitory activity. […] Before reading on a plate reader, the mixture needs to be mixed briefly with centrifuge and then allowed to equilibrate for 1 h. […]

[5] = Pharmacokinetic study in SD rats, oral; format: in vivo; settings: Sprague-Dawley, rat, plasma, 5 mg/kg
Description: SD rats were utilized for the PK study of 8i following oral gavage at the dosage of 5 mg/kg, and the oral dose was formulated in a homogenous opaque suspension of 0.5% methylcellulose. This experiment was performed with the protocol disclosed in our previous work (Zhang et al., [2017b]). The study was carried out in accordance with institutional guidelines of the Animal Research Committee at Jiaxing University (log number JXU2015120812). The protocol was approved by the institution.

[6] = Liver microsomal stability assay, RLM; settings: Sprague-Dawley, rat, liver microsomes
[7] = Liver microsomal stability assay, HLM; settings: human, liver microsomes
PI3Kα = PI3Kα (Homo sapiens, UniProt P42336); experiment: PI3Kα enzymatic assay (Kinase-Glo Luminescent Kinase assay); format: biochemical
Description: as §3

in vitro [8] = settings: human, microsomes
in vitro [9] = settings: Sprague-Dawley, rat, microsomes

Sequence of mTOR (1362-end, Millipore) (P42345 1362-2549 limits assumed): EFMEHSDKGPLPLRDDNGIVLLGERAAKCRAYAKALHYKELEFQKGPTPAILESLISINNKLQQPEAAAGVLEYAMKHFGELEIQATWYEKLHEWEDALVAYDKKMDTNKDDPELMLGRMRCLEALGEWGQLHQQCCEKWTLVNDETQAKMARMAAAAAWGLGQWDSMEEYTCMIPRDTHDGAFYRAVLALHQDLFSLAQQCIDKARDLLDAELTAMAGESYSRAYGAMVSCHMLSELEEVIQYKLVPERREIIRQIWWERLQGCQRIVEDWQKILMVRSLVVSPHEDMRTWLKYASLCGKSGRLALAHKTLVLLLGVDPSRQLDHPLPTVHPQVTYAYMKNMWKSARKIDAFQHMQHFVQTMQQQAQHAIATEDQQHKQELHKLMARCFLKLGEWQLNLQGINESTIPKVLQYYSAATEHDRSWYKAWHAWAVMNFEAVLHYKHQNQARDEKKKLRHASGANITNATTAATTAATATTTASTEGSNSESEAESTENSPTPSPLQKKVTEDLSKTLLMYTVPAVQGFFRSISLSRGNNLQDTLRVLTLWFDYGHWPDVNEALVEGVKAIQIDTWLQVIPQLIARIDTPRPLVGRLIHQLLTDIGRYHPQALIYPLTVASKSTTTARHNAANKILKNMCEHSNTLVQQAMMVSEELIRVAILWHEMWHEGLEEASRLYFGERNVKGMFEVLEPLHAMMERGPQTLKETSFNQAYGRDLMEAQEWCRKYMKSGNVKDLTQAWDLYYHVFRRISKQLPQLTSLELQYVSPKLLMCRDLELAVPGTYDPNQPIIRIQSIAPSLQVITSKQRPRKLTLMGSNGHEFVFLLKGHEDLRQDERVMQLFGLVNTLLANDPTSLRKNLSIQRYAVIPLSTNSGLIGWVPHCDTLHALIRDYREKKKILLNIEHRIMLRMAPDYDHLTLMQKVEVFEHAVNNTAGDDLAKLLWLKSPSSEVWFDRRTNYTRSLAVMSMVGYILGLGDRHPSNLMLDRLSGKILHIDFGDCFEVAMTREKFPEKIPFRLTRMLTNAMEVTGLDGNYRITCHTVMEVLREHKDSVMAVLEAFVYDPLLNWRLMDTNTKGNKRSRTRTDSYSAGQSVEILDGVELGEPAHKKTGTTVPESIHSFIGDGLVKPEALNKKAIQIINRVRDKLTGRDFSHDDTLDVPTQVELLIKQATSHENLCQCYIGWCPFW
Sequence of PI3Kβ (P42338 whole entry): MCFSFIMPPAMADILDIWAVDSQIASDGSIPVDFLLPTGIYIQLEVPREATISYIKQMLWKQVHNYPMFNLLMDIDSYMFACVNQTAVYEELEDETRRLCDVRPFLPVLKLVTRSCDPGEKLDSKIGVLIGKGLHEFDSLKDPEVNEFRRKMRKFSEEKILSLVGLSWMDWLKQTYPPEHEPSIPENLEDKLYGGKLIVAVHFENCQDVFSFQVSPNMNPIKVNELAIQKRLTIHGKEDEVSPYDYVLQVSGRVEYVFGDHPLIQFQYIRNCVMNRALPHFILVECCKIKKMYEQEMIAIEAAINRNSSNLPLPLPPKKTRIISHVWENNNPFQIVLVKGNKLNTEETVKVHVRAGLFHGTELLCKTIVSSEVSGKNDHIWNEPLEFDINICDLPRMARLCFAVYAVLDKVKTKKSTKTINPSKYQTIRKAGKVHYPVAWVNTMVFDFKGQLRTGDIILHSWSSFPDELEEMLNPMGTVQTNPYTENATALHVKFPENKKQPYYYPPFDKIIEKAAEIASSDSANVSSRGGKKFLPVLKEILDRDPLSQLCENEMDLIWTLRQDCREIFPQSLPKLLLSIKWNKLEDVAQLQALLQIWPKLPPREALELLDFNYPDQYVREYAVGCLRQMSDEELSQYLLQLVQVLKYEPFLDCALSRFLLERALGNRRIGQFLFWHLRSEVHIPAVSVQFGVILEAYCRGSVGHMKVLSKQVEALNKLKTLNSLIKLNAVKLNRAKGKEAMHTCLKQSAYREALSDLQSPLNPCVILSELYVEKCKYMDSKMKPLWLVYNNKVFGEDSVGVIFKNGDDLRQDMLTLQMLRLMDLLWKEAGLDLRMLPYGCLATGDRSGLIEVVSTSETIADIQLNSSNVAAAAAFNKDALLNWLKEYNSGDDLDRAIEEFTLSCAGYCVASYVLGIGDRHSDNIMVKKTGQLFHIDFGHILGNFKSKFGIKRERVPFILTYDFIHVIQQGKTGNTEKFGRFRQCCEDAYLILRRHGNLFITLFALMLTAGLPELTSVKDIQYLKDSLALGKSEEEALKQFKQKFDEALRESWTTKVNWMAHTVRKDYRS
Sequence of PI3Kβ (P27986 whole entry partner): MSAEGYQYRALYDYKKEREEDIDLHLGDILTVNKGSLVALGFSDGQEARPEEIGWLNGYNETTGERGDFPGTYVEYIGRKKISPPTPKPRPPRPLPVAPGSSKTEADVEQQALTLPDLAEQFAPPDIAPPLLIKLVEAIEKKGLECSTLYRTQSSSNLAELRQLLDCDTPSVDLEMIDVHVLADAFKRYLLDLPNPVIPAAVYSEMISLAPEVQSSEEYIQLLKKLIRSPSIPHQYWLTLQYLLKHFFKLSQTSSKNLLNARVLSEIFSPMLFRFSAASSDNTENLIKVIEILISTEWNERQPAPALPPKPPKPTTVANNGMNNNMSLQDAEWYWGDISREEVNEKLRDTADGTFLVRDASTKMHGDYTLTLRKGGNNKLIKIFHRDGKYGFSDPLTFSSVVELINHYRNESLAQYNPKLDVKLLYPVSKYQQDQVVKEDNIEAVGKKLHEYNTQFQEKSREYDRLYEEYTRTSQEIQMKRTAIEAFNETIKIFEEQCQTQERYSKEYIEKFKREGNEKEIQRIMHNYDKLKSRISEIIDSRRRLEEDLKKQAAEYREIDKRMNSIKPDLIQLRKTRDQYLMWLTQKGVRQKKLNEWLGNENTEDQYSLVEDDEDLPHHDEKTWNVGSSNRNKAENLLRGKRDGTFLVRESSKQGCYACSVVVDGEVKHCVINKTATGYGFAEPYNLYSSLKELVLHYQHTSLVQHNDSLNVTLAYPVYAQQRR
Sequence of PI3Kα (P42336 whole entry): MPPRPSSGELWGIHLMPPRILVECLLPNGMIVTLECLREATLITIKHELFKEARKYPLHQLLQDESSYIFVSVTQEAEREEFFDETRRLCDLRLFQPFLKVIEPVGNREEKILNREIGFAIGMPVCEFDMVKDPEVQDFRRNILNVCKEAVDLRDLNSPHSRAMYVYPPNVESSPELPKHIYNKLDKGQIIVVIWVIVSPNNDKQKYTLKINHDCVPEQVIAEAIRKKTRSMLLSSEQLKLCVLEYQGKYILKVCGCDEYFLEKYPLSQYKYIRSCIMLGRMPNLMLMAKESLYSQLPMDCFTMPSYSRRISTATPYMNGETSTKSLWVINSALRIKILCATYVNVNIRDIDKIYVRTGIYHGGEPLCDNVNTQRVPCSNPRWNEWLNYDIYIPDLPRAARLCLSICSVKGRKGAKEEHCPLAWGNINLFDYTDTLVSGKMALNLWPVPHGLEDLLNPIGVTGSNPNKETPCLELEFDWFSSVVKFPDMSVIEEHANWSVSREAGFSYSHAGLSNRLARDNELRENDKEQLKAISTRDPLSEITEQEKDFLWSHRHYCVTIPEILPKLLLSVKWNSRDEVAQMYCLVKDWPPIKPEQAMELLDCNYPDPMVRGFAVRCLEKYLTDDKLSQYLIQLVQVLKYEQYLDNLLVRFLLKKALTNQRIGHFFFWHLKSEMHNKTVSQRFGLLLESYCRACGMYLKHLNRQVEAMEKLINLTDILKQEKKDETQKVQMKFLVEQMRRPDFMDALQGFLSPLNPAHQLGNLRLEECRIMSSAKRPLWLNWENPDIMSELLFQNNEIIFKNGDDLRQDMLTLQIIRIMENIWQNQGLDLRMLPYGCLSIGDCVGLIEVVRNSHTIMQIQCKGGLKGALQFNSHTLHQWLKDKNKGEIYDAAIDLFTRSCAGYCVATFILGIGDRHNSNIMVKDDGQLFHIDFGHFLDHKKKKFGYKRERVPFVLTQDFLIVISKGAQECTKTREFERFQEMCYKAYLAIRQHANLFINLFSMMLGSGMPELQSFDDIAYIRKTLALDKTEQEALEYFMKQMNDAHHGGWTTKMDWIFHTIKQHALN
Sequence of PI3Kα (P27986 whole entry partner): as the sequence (P27986 whole entry partner) above

Q: For `COc1ncc(-c2ccc3nccc(/C=C/C(=O)N4CCN(C)CC4)c3c2)cc1NS(=O)(=O)c1ccc(F)cc1F` [8i, (E)-2,4-difluoro-N-(2-methoxy-5-(4-(3-(4-methylpiperazin-1-yl)-3-oxoprop-1-en-1-yl)quinolin-6-yl)pyridin-3-yl)benzenesulfonamide], which IC50 (PI3Kβ) is on record?
A: 1.5 nM

Q: What about the IC50 (PI3Kγ) of the same compound?
A: 0.55 nM

Q: What about the GI50 ([1]; Homo sapiens, PC-3, 72 h) of the same compound?
A: < 500 nM

Q: What about the GI50 [1] of the same compound?
A: 400 nM

Q: What about the IC50 (PI3Kδ) of the same compound?
A: 1 nM

Q: What about the “effect on the level of phos-Akt (Ser473) compared with GSK2126458” value [2] of the same compound?
A: stronger

Q: And the “down-regulation of phos-Akt (Ser473), phos-Akt (Thr308), phos-S6 ribosomal protein (Ser235/236) and phos-4E-BP1 (Thr37/46)” value ([2]; at a concentration as low as 5 nM)?
A: dramatically down-regulated; also recorded: remarkably down-regulated

Q: And the IC50 [3]?
A: 1.3 nM

Q: And the “GI50 HCT116” value ([4]; HCT116 cells)?
A: sub-micromolar

Q: And the GI50 ([4]; Homo sapiens, HCT-116, HCT116 cells)?
A: 470 nM

Q: And the “IC50 values against all the tested enzymes” value (PI3Ks and mTOR)?
A: sub-nanomolar or low nanomolar level

Q: What about the AUC(0-inf) [5] of the same compound?
A: 412 ng·h/mL

Q: What about the AUC(0-t) [5] of the same compound?
A: 379 ng·h/mL

Q: And the Cmax [5]?
A: 249 ng/mL

Q: What about the half-life ([5]; read-out: elimination half-life t1/2 (converted)) of the same compound?
A: 1.73 h

Q: And the CLint scaled [6]?
A: < 17.3 mL/min/kg

Q: What about the half-life [6] of the same compound?
A: > 2.42 h

Q: What about the microsomal CLint [6] of the same compound?
A: < 9.6 µL/min/mg

Q: And the remaining at 1 h [6]?
A: 72.8%

Q: What about the CLint scaled [7] of the same compound?
A: 16.6 mL/min/kg

Q: What about the half-life [7] of the same compound?
A: 1.25 h

Q: And the microsomal CLint [7]?
A: 18.5 µL/min/mg

Q: And the remaining at 1 h [7]?
A: 57.1%

Q: And the IC50 (PI3Kα)?
A: 0.5 nM

Q: For `C[C@]12CC[C@H]3[C@@H](CCC4=CC(=O)CC[C@@]43C)[C@@H]1CC[C@@H]2O` [Testosterone], which CLint scaled (in vitro [8]) is on record?
A: 91.1 mL/min/kg

Q: And the remaining at 1 h (in vitro [8])?
A: 4.8%

Q: And the CLint scaled (in vitro [9])?
A: 3780 mL/min/kg
